Source: patent US20120021079A1, “Garcinia Mangostana L. and Iridoid Based Formulations” (priority 2010, published 2012)

Legend:
E. coli PQ37 [1] = experiment: Anti-genotoxicity test (SOS-chromotest with 4NQO, Example Three); format: cell-based; settings: for induction factor of 4NQO plus iridoid versus vehicle blank: 250 μg mL^−1 iridoid plus 1.25 μg mL^−1 4NQO; for Induction factor: 250 μg ml^−1 DAA or AA together with 1.25 μg ml^−1 4NQO, E. coli PQ37
Experimental: The primary DNA damage test was performed again, similar to the method described above. […] Induction factors were calculated in the same manner as described above.

[2] = Intra- and inter-day precision and stability assays of iridoids by HPLC-PDA; format: physicochemical; settings: 3 consecutive days, HPLC sample solutions
Experimental: The limits of detection (LOD) and quantitation (LOQ) were defined as the lowest concentrations of analytes in a sample that can be detected and quantified. These LOD and LOQ limits were determined on the basis of signal-to-noise ratios (S/N) of 3:1 and 10:1, respectively. The working solutions of standards 1 and 2 for LOD and LOQ were prepared by diluting them sequentially. The intra- and inter-day precision assays, as well as stability tests were performed by following the method applied to the sample analysis for 3 consecutive days. Accuracy of the method (recovery) was assessed by the recovery percentage of iridoids 1 and 2 in the spiked samples. […] The recovery percentage was calculated using the ratio of concentration detected (actual) to those spiked (theoretical). Variation was evaluated by the relative standard deviation (RSD) of triplicate injections in the HPLC experiments.
The limits of detection (LOD) and quantitation (LOQ) were defined as the lowest concentrations of analytes in a sample that can be detected and quantified. These LOD and LOQ limits were determined on the basis of signal-to-noise ratios (S/N) of 3:1 and 10:1, respectively. […] Repeatability is the degree of agreement between results, when experimental conditions are maintained as constant as possible, and is expressed as the relative standard deviation (RSD) of replicates. […]

E. coli PQ37 [3] = format: cell-based; settings: 250 ug mL^−1 iridoid plus 1.25 ug mL^−1 4NQO; blank = 1
Experimental: The SOS-chromotest in E. coli PQ37 was used to determine the potential for iridoids in noni fruit from French Polynesia to prevent primary DNA damage. […] Replicate samples were evaluated. […] Following incubation with the samples, 5-bromo-4-chloro-3-indolyl-β-D-galactopyranoside was added to the wells to detect β-galactosidase enzyme activity, which is induced during SOS repair of damaged DNA. The samples were again incubated for 90 minutes and the absorbances of the samples, blank and positive control were measured at 620 nm with a microplate reader. The β-galactosidase enzyme activity induction factor of each material was calculated by dividing the absorbance of the sample at 620 nm by that of the blank, while also correcting for cell viability.

SMILES: CC(=O)OCC1=C[C@H](O)[C@@H]2C(C(=O)O)=CO[C@@H](O[C@@H]3O[C@H](CO)[C@@H](O)[C@H](O)[C@H]3O)[C@H]12 [AA, asperulosidic acid]
- induction factor of 4NQO plus iridoid versus vehicle blank (E. coli PQ37 [1]): no statistical difference from that of the vehicle blank
- Induction factor (E. coli PQ37 [1]): 1.06 ± 0.03
- stability during investigation period [2]: stable during investigation period

SMILES: O=C(O)C1=CO[C@@H](O[C@@H]2O[C@H](CO)[C@@H](O)[C@H](O)[C@H]2O)[C@@H]2C(CO)=C[C@H](O)[C@H]12 [DAA, deacetylasperulosidic acid]
- induction factor (mean±standard deviation) (E. coli PQ37 [3]): 0.98±0.02
- induction factor of 4NQO plus iridoid versus vehicle blank (E. coli PQ37 [1]): no statistical difference from that of the vehicle blank
- Induction factor (E. coli PQ37 [1]): 1.08 ± 0.12
- stability during investigation period [2]: stable during investigation period
